# The supplement of paper PMC8633005
# How the values were obtained:
# Assay in all cases: drug sensitivity score (DSS) (DSS (unitless, 0-50 scale)); higher = more sensitive (stronger viability inhibition); extreme values may be limits of the assay
# Conditions in all cases: 72 h; culture: 2D
# [1] = test system: Bowes
# In short: (§1)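 Drug sensitivity scores, modified area-under-curve measures, were derived from dose-response curves fitted in the in-house Breeze software. The curves came from melanoma cell lines and patient-derived melanoma cultures (1000–1500 cells per well) grown in 2D in 384-well plates holding a 527-compound oncology library. Each compound was dissolved in DMSO or water and tested at five concentrations across a 10,000-fold range. Viability was read by CellTiter-Glo luminescence after 72 h at 37 °C.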
# [2] = test system: WM165
# In short: as §1
# [3] = test system: FM-MEL-2
# In short: as §1
# [4] = test system: SK-MEL-2
# In short: as §1
# [5] = test system: FM-MEL-6
# In short: as §1
# [6] = test system: WM852
# In short: as §1
# [7] = test system: SK-MEL-28
# In short: as §1
# [8] = test system: FM-MEL-3
# In short: as §1
Compound,drug sensitivity score [1],drug sensitivity score [2],drug sensitivity score [3],drug sensitivity score [4],drug sensitivity score [5],drug sensitivity score [6],drug sensitivity score [7],drug sensitivity score [8]
CN1CCN(c2cc(C(=O)Nc3ccc4c(c3)-c3c(c(C(N)=O)nn3-c3ccc(F)cc3)CC4)c(Cl)cn2)CC1 [PHA 408],0.5,3.4,5.7,4.2,5.2,5.3,0.1,1.1
O=C(NCc1ccncc1)C12CC3CC(C1)CC(c1ccc(Cl)cc1)(C3)C2,5.2,6.1,2,2,1.2,4.3,2.6,7.6
CC[C@]1(O)C[C@H]2CN(CCc3c([nH]c4ccccc34)[C@@](C(=O)OC)(c3cc4c(cc3OC)N(C=O)[C@H]3[C@@](O)(C(=O)OC)[C@H](OC(C)=O)[C@]5(CC)C=CCN6CC[C@]43[C@@H]65)C2)C1 [Vincristine],18.7,20.2,4.5,18.5,7.6,16.5,10.1,12.6
Cc1cnc(-c2ccccc2C(C)C)nc1NCc1ccc(-n2ccnn2)cc1 [ML323],0.6,1.1,0,0,0,0.9,0,1.2
CCOC(=O)CCNc1cc(N2CCc3ccccc3CC2)nc(-c2ccccn2)n1 [GSK-J4],11.2,3.2,1,0,1.3,2.3,0,20.9
Cc1cc(Nc2ncc(Cl)c(Nc3ccccc3S(=O)(=O)C(C)C)n2)c(OC(C)C)cc1C1CCNCC1 [Ceritinib],0.3,4.5,4.3,0,2.6,1,1.5,4.3
O=c1[nH]c(=O)n([C@H]2C[C@H](O)[C@@H](CO)O2)cc1F [Floxuridine],15.7,18.4,0.4,0,1.2,4.9,8,0
O=c1[nH]c(C2CCCN2)nc2c1oc1ccc(Cl)cc12 (centres undefined),0,0.7,0.5,0,0,0,0,0
O=S(=O)(c1cccc2c(O)nccc12)N1CCCNCC1 [Hydroxyfasudil],0,0,0,0,1.8,0,0,0
Cc1nc(-c2cn3c(n2)-c2ccc(-c4cnn(C(C)(C)C(N)=O)c4)cc2OCC3)n(C(C)C)n1 [Taselisib],2.8,4.2,7.4,0.2,6.6,3.5,5.6,4.7
Oc1ccc2c(c1)CC[C@H](c1ccccc1)[C@@H]2c1ccc(OCCN2CCCC2)cc1 [Lasofoxifene],0,0,0,0,0,0,0,0
c1cc(CN2CCCNCCNCCCNCC2)ccc1CN1CCCNCCNCCCNCC1 [Plerixafor],0,0,0,0,0,0,0,0
Cc1cccc(-c2[nH]c(CNc3ccccc3F)nc2-c2ccc3ncnn3c2)n1 [TEW-7197],0,0,0.7,0,0,0,0,0
O=C(CCCCCCNC(=O)c1cnc(N(c2ccccc2)c2ccccc2)nc1)NO [Rocilinostat],2,5.7,2.8,3.4,6.6,2.3,3.7,6.4
N#CC(c1ccnc(OCc2ccc(CN3CCOCC3)cc2)n1)c1nc2ccccc2s1 (centres undefined) [Bentamapimod],1.4,1.1,3.9,0,2.8,0.1,0.8,5.9
CCS(=O)(=O)Nc1ccc(Oc2ccc(F)cc2F)c(-c2cn(C)c(=O)c3[nH]ccc23)c1 [Mivebresib],17,24.2,16.3,9,15.8,0.4,12.2,16.2
CC[C@H](C)C(=O)O[C@H]1C[C@@H](C)C=C2C=C[C@H](C)[C@H](CC[C@@H]3C[C@@H](O)CC(=O)O3)[C@H]21 [Lovastatin],2.1,1.8,0,0,0,0.6,0,0.1
CO[C@H]1C(=O)[C@]2(C)[C@@H](OC)C[C@H]3OC[C@@]3(OC(C)=O)[C@H]2[C@H](OC(=O)c2ccccc2)[C@]2(O)C[C@H](OC(=O)[C@H](O)[C@@H](NC(=O)OC(C)(C)C)c3ccccc3)C(C)=C1C2(C)C [Cabazitaxel],24.3,23.2,1.6,14.8,12.1,20.3,9.1,8.2
